According to patent US20260275280A1, “DIRECTED DIFFERENTIATION PROTOCOLS TO DERIVE BONE FIDE SPINAL SENSORY INTERNEURONS” (THE REGENTS OF THE UNIVERSITY OF CALIFORNIA, priority 2022, published 2026):
“Also recorded” adds a separate entry of the source.

How the values were obtained:
[1] = tested on: hESCs/hiPSCs; experiment: Induction of NMPs from hPSCs in 2D culture (FGF2, CHIR99021); format: cell-based, human; settings: N2/B27 with FGF2 and CHIR99021, up to day 6
Method: Add 2 mL N2/B27 media containing 10ng of FGF2 and SuM of CHIR99021 (Wnt signaling agonist) to each well of the 6-well plate and return the plate to the incubator. Feed cells every other day with N2/B27 media for up to 6 days. Cells should appear as a monolayer with cells packed together tightly at the end of day 6 (FIG. 16A). This confluency is optimal for embryoid body (EB) formation in the next step.

[2] = tested on: dorsal NPCs in mESC-derived EBs; experiment: Embryoid body proliferation assay (EdU incorporation, pH3) with CHIR; format: cell-based, mouse
Method: Embryoid body (EB) culture. and expansion: To initiate EB formation, dissociated embryonic stem cells were seeded in low attachment plates (Corning) at 10^5 cells/ml density in N2/B27 medium supplemented with 10 ng/ml bFGF. To induce posterior spinal cord and dorsal spinal patterning, RA and RA+BMP4 were added using the same timeline as described for the 2D differentiation, and the media was changed at every other day after day 5.
For EBs, EBs were collected and fixed with fresh 4% PFA for 20 minutes at 4° C. EBs were then equilibrated with 30% sucrose for overnight at 4C and embedded into the OCT compound for cryo-sectioning. 12 um sections were collected onto positive charged slides (VVVR), incubated with the antibody blocking solution for 1 hr, and then stained as above.
Image quantification: To count the number of nuclei, images were converted to 8 bit image in ImageJ, their threshold intensity was adjusted to capture only the florescent nuclei, and the number of nuclei counted using the analyze particle tool in ImageJ. For each image, the area under the DAPI staining was determined using ImageJ and target cells were represented as % of cells in 100 μm^2 DAPI^+ area.
We then asked whether activating Wnt signaling in mESC-derived NMPs affected their mitotic index. To better visualize proliferation, mESCs were permitted to assemble into three dimensional EBs (Andrews et al., 2017; Duval et al., 2019; Gupta et al., 2018), and then treated with RA±BMP4 over the same timeline as protocol 1 and 3 (FIG. 1B) to induce dorsal spinal cord patterning. EBs were then cultured with either DMSO or CHIR from day 5 to day 9 (FIG. 6C), when the cultures were pulsed with 5-Ethynyl-2′-deoxyuridine (EdU) to label cells in S-phase of the cell cycle. Strikingly, there was a ~3-fold increase in EdU+cells in CHIR-treated EBs (FIG. 6E, 6G, 6H) compared to DMSO control (FIG. 6D, 6F, 6H) in both protocols. […] Many of the dividing cells in the CHIR-treated cultures were Sox2+NPCs (FIG. 6E, 6G), while NPCs are largely depleted by day 9 in control cultures (FIG. 6D, 6F). Thus, extending the window of Wnt signaling appears to prolong NPC proliferation.

[3] = tested on: mESCs-derived NMPs; experiment: 2D directed differentiation of NMPs with RA/BMP4, immunohistochemistry (pSmad1/5/8, Pax3, Pax6, Sox2, Tuj1, Pax2); format: cell-based, mouse; settings: 24 hr pulse of RA at day 3
Method: The mouse ESC line, MM13, was routinely maintained in ES cell media (DMEM+20% FBS) with 100u/ml of mouse leukocyte inducing factor (LIF). […] To prepare cells for the differentiation, ESC colonies were dissociated with 0.25% trypsin and plated on gelatin coated plates at 1:10 dilution to reduce MEF transfer. Cells cultured on gelatin coated plates and allowed to proliferate for 1-2 days. To initiate differentiation, cells were plated on 0.1% gelatin coated 24-well CellBIND dishes (Corning) at 20,000 cells/ml density in 0.5 ml/well N2/B27 medium that contains 10 ng/ml basic fibroblast growth factor (bFGF). The N2/B27 medium contains 1:1 portions of Advanced Dulbecco's modified Eagle Media (DMEM) F12 (Hyclone) and Neurobasal media (Thermo Fisher Scientific) supplemented with 0.5×N2, 1×B27 supplement (with Vitamin A), 2 mM L-glutamine, 0.1 mM 2-mercaptoethanol (ME), and 1% BSA. On day 1, small colonies of cells can be observed attached to the bottom of the wells. On day 2, cells were supplemented with 10 ng/ml bFGF and 5 μM CHIR99021 for 24 hours to induce a neuromesodermal identity (Gouti et al., 2014). On day 3, media was changed as follows: for protocol 1, cells were exposed to 100 nM RA for 48 hrs. […] At the end of the differentiation, the cultures were fixed for immunohistochemical analysis or lysed to obtain RNA for RNA-Seq or quantitative reverse transcriptase PCR analysis. […]

[4] = RA±BMP4 patterned EBs, CHIR day 5 to day 9

Structure (SMILES) | growth rate of the hPSC/NMP monolayer [1] | increase in EdU+ cells compared to DMSO control [2, 4] | increase in the number of pHistone H3 (pH3)+ cells compared to control [2, 4] | increase in cell proliferation (EdU+ and pH3+ cells) compared to DMSO ([2]; RA±BMP4 patterned EBs, n=15-25 EBs) | identity of CHIR-treated NPCs (Pax3, Pax7, Olig3) ([2]; protocol 1 and protocol 3 EBs, day 9) | Pax3+ cells by day 4 [3]
Cc1c[nH]c(-c2cnc(NCCNc3ccc(C#N)cn3)nc2-c2ccc(Cl)cc2Cl)n1 [CHIR, CHIR99021] | induces a higher growth rate in the monolayer | ~ 3 fold | 2-4 fold | ~ 3 fold | retained their original identity; also recorded: does not significantly (unpaired t-test) alter their dorsal-ventral identities | –
CC1=C(/C=C/C(C)=C/C=C/C(C)=C/C(=O)O)C(C)(C)CCC1 [RA, retinoic acid] | – | – | – | – | – | 90-95%
